Source: patent US12195439B1, “C1-substituted isopropylamine fused heterocyclic mescaline derivatives” (Enveric Biosciences Canada Inc., priority 2022, dated 2025)
Read-outs that look alike come from different tables or passages of the source.

Experiments:
5-HT1A receptor [1] = biological target: T1, 5-HT1A receptor (Homo sapiens, UniProt P08908); test: Eurofins Cerep competition binding assay at 5-HT1A receptor; settings: 10 μM test ligand, [3H]8-OH-DPAT, recombinant receptor from HEK-293 cells; for inhibition at 10 µM: read-out: HT1A, percent of control-specific binding
T1 construct: purchased Perkin Elmer 6110501400UA
T1 sequence (P08908 1-422): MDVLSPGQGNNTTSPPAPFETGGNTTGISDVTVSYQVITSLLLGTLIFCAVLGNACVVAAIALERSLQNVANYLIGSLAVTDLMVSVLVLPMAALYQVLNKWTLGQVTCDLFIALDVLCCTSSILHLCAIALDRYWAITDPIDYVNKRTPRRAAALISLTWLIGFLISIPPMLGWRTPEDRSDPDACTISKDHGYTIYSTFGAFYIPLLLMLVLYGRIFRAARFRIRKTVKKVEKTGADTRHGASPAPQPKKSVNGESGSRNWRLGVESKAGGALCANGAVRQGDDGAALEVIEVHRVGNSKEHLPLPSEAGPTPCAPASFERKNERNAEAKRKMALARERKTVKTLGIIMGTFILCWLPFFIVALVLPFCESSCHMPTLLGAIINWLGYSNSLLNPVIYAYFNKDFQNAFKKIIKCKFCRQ

5-HT7 receptor = biological target: T2, 5-HT7 receptor (Homo sapiens, UniProt P34969); test: Eurofins Cerep competition binding assay at 5-HT7 receptor; settings: 10 μM test ligand, [3H]LSD, recombinant receptor from HEK-293 cells; for inhibition at 10 µM: read-out: HT7, percent of control-specific binding
T2 construct: host or cells: HEK-293 cells (membrane preparation)
T2 sequence (P34969 whole entry): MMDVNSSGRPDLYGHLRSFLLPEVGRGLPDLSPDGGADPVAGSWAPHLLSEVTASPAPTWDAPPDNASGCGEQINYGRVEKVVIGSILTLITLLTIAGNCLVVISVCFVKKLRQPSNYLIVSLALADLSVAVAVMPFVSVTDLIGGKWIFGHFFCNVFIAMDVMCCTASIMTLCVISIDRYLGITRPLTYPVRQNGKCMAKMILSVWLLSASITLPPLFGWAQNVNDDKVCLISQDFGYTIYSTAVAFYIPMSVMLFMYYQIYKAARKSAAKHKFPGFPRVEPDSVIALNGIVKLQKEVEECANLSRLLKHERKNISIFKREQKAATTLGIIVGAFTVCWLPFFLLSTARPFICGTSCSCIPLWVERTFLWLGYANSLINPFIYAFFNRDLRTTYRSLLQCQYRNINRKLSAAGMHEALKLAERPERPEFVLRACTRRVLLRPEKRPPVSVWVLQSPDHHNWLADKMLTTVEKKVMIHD

MT1 receptor = biological target: T3, MT1 receptor (Homo sapiens, UniProt P48039); test: Eurofins Cerep competition binding assay at MT1 receptor; settings: for inhibition at 10 µM: read-out: MT1, percent of control-specific binding, 10 μM test ligand, [125I]2-iodomelatonin, recombinant receptor from CHO cells; for MT1, percent of control-specific binding: 10 μM test ligand, [125I]2-iodomelatonin, recombinant receptor from CHO cells
T3 construct: host or cells: CHO cells (membrane preparation)
T3 sequence (P48039 whole entry): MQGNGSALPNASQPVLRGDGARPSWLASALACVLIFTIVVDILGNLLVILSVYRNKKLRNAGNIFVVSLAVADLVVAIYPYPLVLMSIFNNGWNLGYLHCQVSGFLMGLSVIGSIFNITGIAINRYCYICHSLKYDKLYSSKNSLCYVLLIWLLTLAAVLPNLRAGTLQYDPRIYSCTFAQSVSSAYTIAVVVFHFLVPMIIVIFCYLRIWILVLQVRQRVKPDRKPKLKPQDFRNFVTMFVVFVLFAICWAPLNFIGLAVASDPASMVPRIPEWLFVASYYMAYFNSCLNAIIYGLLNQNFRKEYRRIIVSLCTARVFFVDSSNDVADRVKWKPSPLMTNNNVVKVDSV

5-HT2A receptor = biological target: T4, 5-HT2A receptor (Homo sapiens, UniProt P28223); test: biochemical; assay type: binding; settings: competition with 1 nM [3H]ketanserin, membranes containing 5-HT2A, SPA
T4 construct: purchased PerkinElmer ES-313-M400UA
T4 sequence (P28223 whole entry): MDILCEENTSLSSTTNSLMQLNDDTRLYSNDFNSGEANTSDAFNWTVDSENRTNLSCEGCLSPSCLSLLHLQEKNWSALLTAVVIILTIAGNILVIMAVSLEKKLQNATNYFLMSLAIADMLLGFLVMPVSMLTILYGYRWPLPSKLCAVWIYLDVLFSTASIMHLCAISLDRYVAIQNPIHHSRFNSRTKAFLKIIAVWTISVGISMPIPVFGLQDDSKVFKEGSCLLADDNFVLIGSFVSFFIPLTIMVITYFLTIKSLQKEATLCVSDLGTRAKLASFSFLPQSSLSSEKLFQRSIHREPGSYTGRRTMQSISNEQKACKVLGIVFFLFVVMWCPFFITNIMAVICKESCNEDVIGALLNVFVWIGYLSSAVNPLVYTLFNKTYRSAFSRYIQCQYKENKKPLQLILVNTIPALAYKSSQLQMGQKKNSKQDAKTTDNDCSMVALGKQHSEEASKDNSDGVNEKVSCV

5-HT1A receptor [2] = biological target: T1, 5-HT1A receptor; test: 5-HT1A receptor radioligand competition assay (SPA); assay type: binding; settings: competition with 0.5 nM [3H]8-hydroxy-DPAT, membranes containing 5-HT1A
alpha2A receptor = biological target: T5, alpha2A receptor (Homo sapiens, UniProt P08913); test: Eurofins Cerep competition binding assay at alpha2A receptor; settings: 10 μM test ligand, [3H]RX 821002, recombinant receptor from CHO cells; for inhibition at 10 µM: read-out: α-2A, percent of control-specific binding
T5 construct: host or cells: CHO cells (membrane preparation)
T5 sequence (P08913 1-465): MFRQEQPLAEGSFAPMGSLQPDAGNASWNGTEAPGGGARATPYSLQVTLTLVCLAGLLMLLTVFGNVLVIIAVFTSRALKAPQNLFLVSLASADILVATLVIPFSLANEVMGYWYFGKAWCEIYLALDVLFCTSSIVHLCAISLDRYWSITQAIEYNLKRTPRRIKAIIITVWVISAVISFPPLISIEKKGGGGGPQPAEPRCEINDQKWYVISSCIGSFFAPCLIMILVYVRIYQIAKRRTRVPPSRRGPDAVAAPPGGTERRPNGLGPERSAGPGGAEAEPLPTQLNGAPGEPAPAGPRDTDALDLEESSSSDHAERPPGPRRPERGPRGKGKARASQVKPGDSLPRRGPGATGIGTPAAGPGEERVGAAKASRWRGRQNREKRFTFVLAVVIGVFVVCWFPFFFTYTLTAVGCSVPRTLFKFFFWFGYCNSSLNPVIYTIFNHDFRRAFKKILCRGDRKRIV

5-HT2C receptor = biological target: T6, 5-HT2C receptor (Homo sapiens, UniProt P28335); test: Eurofins Cerep competition binding assay at 5-HT2C receptor; settings: 10 μM test ligand, [125I](±)DOI, recombinant receptor from HEK-293 cells; for inhibition at 10 µM: read-out: HT2C, percent of control-specific binding
T6 construct: host or cells: HEK-293 cells (membrane preparation)
T6 sequence (P28335 33-458): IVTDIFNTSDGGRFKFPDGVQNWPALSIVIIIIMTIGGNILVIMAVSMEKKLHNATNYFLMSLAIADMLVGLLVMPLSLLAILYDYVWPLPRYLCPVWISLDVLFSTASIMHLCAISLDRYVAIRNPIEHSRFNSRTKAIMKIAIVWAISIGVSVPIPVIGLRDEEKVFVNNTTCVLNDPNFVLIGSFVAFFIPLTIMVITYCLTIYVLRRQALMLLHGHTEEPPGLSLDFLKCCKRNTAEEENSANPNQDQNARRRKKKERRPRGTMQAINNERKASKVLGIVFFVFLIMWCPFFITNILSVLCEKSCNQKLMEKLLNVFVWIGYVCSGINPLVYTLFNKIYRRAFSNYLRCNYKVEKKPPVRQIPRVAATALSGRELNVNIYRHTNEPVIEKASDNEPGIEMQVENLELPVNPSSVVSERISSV

[3] = biological target: T7, serotonin transporter (SERT) (Homo sapiens, UniProt P31645); test: biochemical; assay type: binding; settings: for inhibition at 10 µM: read-out: SERT, percent of control-specific binding; for SERT, percent of control-specific binding: 10 µM
T7 construct: host or cells: CHO cells (membrane preparation)
T7 sequence (P31645 whole entry): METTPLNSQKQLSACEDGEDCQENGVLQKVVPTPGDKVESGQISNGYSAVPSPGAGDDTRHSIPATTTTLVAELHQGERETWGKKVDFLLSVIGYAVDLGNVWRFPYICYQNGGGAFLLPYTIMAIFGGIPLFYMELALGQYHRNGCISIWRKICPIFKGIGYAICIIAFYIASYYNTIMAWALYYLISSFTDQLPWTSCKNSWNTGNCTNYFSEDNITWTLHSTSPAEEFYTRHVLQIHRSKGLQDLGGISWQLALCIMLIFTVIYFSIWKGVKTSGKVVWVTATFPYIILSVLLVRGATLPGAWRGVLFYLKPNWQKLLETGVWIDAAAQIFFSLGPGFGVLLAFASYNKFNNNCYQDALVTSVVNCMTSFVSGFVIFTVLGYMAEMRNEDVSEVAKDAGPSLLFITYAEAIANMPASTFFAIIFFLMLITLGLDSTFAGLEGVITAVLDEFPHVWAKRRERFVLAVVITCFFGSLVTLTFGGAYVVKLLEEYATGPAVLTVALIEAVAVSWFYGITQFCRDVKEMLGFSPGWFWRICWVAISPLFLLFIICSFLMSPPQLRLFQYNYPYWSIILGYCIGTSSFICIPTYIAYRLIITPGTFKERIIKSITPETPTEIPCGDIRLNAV

[4] = biological target: T8, norepinephrine transporter (NET) (Homo sapiens, UniProt P23975); test: Eurofins Cerep competition binding assay at norepinephrine transporter; settings: for inhibition at 10 µM: read-out: NET, percent of control-specific binding, 10 μM test ligand, [3H]nisoxetine, recombinant transporter from CHO cells; for NET, percent of control-specific binding: 10 μM test ligand, [3H]nisoxetine, recombinant transporter from CHO cells
T8 construct: host or cells: CHO cells (membrane preparation)
T8 sequence (P23975 whole entry): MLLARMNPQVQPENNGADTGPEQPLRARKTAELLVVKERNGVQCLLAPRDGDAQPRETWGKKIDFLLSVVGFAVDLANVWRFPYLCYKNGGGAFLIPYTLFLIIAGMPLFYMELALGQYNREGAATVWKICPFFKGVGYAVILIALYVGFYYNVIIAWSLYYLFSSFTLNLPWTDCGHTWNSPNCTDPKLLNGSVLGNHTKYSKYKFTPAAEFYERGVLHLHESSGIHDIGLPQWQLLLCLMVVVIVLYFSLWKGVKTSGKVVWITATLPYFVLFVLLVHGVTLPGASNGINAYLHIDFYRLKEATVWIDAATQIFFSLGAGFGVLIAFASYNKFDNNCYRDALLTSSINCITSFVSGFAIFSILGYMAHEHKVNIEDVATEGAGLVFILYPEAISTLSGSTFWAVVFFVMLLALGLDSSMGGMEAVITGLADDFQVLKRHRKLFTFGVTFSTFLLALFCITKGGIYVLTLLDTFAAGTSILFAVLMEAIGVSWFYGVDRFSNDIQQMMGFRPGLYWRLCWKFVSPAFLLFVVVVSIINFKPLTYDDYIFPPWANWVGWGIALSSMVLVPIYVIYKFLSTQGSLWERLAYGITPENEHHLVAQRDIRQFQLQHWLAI

[5] = biological target: T9, dopamine transporter (DAT) (Homo sapiens, UniProt Q01959); test: Eurofins Cerep competition binding assay at dopamine transporter; settings: for inhibition at 10 µM: read-out: DAT, percent of control-specific binding, 10 μM test ligand, [3H]BTCP, recombinant transporter from CHO cells; for DAT, percent of control-specific binding: 10 μM test ligand, [3H]BTCP, recombinant transporter from CHO cells
T9 construct: host or cells: CHO cells (membrane preparation)
T9 sequence (Q01959 whole entry): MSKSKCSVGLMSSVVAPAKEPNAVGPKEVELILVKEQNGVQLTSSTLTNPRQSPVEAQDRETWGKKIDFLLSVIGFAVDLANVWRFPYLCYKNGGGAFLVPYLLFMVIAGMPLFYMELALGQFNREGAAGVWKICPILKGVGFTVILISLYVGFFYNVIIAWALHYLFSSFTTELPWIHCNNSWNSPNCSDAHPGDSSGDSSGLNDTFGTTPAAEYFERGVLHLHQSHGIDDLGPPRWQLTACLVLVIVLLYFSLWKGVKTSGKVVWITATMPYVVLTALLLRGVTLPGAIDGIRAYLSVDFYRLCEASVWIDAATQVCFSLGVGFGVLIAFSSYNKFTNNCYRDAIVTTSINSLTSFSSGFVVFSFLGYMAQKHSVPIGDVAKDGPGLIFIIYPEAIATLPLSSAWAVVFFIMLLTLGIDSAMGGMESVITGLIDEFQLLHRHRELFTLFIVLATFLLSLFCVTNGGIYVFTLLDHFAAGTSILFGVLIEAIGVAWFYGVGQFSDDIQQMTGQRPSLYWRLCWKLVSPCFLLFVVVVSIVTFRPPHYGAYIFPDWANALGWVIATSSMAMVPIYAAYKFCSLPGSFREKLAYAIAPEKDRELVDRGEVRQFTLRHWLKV

5-HT2B receptor = biological target: T10, 5-HT2B receptor (Homo sapiens, UniProt P41595); test: Eurofins Cerep competition binding assay at 5-HT2B receptor; settings: 10 μM test ligand, [3H]mesulergine, recombinant receptor from CHO cells; for inhibition at 10 µM: read-out: HT2B, percent of control-specific binding
T10 construct: host or cells: CHO cells (membrane preparation)
T10 sequence (P41595 whole entry): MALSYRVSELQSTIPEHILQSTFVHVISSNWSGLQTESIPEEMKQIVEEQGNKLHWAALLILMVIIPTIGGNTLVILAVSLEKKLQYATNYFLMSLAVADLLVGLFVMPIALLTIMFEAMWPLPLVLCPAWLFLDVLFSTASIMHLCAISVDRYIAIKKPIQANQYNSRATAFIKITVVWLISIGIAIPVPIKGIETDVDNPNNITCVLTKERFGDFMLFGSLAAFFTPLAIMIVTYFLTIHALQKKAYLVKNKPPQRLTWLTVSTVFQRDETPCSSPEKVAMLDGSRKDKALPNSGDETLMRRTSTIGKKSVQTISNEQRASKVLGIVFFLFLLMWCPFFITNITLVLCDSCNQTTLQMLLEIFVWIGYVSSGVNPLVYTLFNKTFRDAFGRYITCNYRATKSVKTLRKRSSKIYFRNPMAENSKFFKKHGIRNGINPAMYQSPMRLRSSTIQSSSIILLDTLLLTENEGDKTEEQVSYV

5-HT1A receptor [6] = biological target: T1, 5-HT1A receptor; test: 5-HT1A receptor functional cellular response (cAMP) assay; assay type: cell-based
[7] = CHO-K1/5-HT1A/Gα15 cells stimulated with 4 μM forskolin, reduction of intracellular cAMP, read-out: 5-HT1A, EC50

CC(C(=O)c1ccc2c(c1)OCO2)N1CCCC1 (racemic) [A(I)]
inhibition at 10 µM (5-HT1A receptor [1]): 73% | inhibition at 10 µM (5-HT7 receptor): 3% | inhibition at 10 µM (MT1 receptor): 5% | Ki (5-HT2A receptor): 131 µM | Ki (5-HT1A receptor [2]; 5-HT1A, Ki): 2 µM | inhibition at 10 µM (alpha2A receptor): 24% | inhibition at 10 µM (5-HT2C receptor): 45% | inhibition at 10 µM [3]: 25% | inhibition at 10 µM [4]: 59% | inhibition at 10 µM [5]: 95% | inhibition at 10 µM (5-HT2B receptor): 19%

CC(C(O)c1ccc2c(c1)OCO2)N(C)Cc1ccccc1 (single isomer, unassigned) [B(III) as diast. (iii)]
HT1A, percent of control-specific binding (5-HT1A receptor [1]; 10 µM): 0% | HT7, percent of control-specific binding (5-HT7 receptor; 10 µM): 10% | MT1, percent of control-specific binding (MT1 receptor; 10 µM): 0% | Ki (5-HT2A receptor): 44 µM | Ki (5-HT1A receptor [2]; 5-HT1A, Ki): 110 µM | α-2A, percent of control-specific binding (alpha2A receptor; 10 µM): 7% | HT2C, percent of control-specific binding (5-HT2C receptor; 10 µM): 5% | inhibition at 10 µM [3]: 58% | inhibition at 10 µM [4]: 42% | inhibition at 10 µM [5]: 75% | HT2B, percent of control-specific binding (5-HT2B receptor; 10 µM): 3%

CNC(C)C(F)c1ccc2c(c1)OCO2 (single isomer, unassigned) [D(II) as diast. (vi)]
Ki (5-HT1A receptor [2]; 5-HT1A, Ki): 6 µM | EC50 (5-HT1A receptor [6]): > 1000 µM

CC(C(F)c1ccc2c(c1)OCO2)N(C)Cc1ccccc1 (single isomer, unassigned) [D(III) as diast. (vii)]
inhibition at 10 µM (5-HT1A receptor [1]): 36% | inhibition at 10 µM (5-HT7 receptor): 60% | inhibition at 10 µM (MT1 receptor): 23% | Ki (5-HT1A receptor [2]; 5-HT1A, Ki): 11.3 µM | EC50 (5-HT1A receptor [6]): 156 µM | inhibition at 10 µM (alpha2A receptor): 86% | inhibition at 10 µM (5-HT2C receptor): 36% | inhibition at 10 µM [3]: 35% | inhibition at 10 µM [4]: 50% | inhibition at 10 µM [5]: 69% | inhibition at 10 µM (5-HT2B receptor): 29%

COc1cc(CCN)c(OC)cc1Br [2C-B]
HT1A, percent of control-specific binding (5-HT1A receptor [1]): 96% | HT7, percent of control-specific binding (5-HT7 receptor): 88% | MT1, percent of control-specific binding (MT1 receptor): 86% | EC50 (5-HT1A receptor [6]; [7]): 5.95 µM | α-2A, percent of control-specific binding (alpha2A receptor): 88% | SERT, percent of control-specific binding [3]: 42% | NET, percent of control-specific binding [4]: 13% | DAT, percent of control-specific binding [5]: 5% | HT2B, percent of control-specific binding (5-HT2B receptor): 99%

CC(C(F)c1ccc2c(c1)OCO2)N1CCCC1 (stereo not drawn) [D(I) as diast. (v)]
EC50 (5-HT1A receptor [6]): > 1000 µM

C[C@@H]([C@H](F)c1ccc2c(c1)OCO2)N(C)Cc1ccccc1 [D(III) as diast. (vii)]
Ki (5-HT1A receptor [2]; 5-HT1A, Ki): 11.3 µM | EC50 (5-HT1A receptor [6]): 156 µM

CNC(C)Cc1ccc2c(c1)OCO2 (stereo not drawn) [MDMA]
HT1A, percent of control-specific binding (5-HT1A receptor [1]): 68% | HT7, percent of control-specific binding (5-HT7 receptor): 58% | MT1, percent of control-specific binding (MT1 receptor): 1% | EC50 (5-HT1A receptor [6]; [7]): > 1000 µM | α-2A, percent of control-specific binding (alpha2A receptor): 27% | HT2C, percent of control-specific binding (5-HT2C receptor): 96% | SERT, percent of control-specific binding [3]: 46% | NET, percent of control-specific binding [4]: 3% | DAT, percent of control-specific binding [5]: 28% | HT2B, percent of control-specific binding (5-HT2B receptor): 85%

CCOc1c(OC)cc(CCN)cc1OC [escaline]
HT1A, percent of control-specific binding (5-HT1A receptor [1]): 44% | HT7, percent of control-specific binding (5-HT7 receptor): 16% | MT1, percent of control-specific binding (MT1 receptor): 0% | Ki (5-HT1A receptor [2]; read-out: 5-HT1A, Ki): 12.4 µM | α-2A, percent of control-specific binding (alpha2A receptor): 45% | HT2C, percent of control-specific binding (5-HT2C receptor): 95% | SERT, percent of control-specific binding [3]: 0% | NET, percent of control-specific binding [4]: 6% | DAT, percent of control-specific binding [5]: 0% | HT2B, percent of control-specific binding (5-HT2B receptor): 81%

COc1cc(CCN)cc(OC)c1OC [mescaline, 3,4,5 trimethoxyphenethylamine]
inhibition at 10 µM (5-HT1A receptor [1]): 65% | inhibition at 10 µM (5-HT7 receptor): 38% | inhibition at 10 µM (MT1 receptor): 6% | Ki (5-HT1A receptor [2]; 5-HT1A, Ki): 8.5 µM | EC50 (5-HT1A receptor [6]): > 1000 µM | inhibition at 10 µM (alpha2A receptor): 57% | inhibition at 10 µM (5-HT2C receptor): 95% | inhibition at 10 µM [3]: -6% | inhibition at 10 µM [4]: -9% | inhibition at 10 µM [5]: -1% | inhibition at 10 µM (5-HT2B receptor): 80%

CCCOc1c(OC)cc(CCN)cc1OC [proscaline]
inhibition at 10 µM (5-HT1A receptor [1]): 71% | inhibition at 10 µM (5-HT7 receptor): 5% | inhibition at 10 µM (MT1 receptor): 3% | Ki (5-HT2A receptor): 82 µM | Ki (5-HT1A receptor [2]; 5-HT1A, Ki): 9.4 µM | inhibition at 10 µM (alpha2A receptor): 40% | inhibition at 10 µM (5-HT2C receptor): 97% | inhibition at 10 µM [3]: 23% | inhibition at 10 µM [4]: -9% | inhibition at 10 µM [5]: -2% | inhibition at 10 µM (5-HT2B receptor): 85%

CN(C)CCc1c[nH]c2cccc(O)c12 [psilocin]
EC50 (5-HT1A receptor [6]): 0.957 µM
